Publication PMC2796389 (PLoS ONE, 2010)

Key:
human mu-class GST M2-2 = system: human mu-class GST M2-2; set-up: method as in PMID 12230403; conditions: conversion to glutathione conjugate; read-out: Km for PGA2; cited from earlier work
[1] = system: Cyphoma digestive gland cytosolic GST; assay: Inhibition of CDNB-conjugating GST activity in digestive gland cytosol; type: biochemical, Cyphoma gibbosum; conditions: prostaglandins screened at 600 µM, 5% (v/v) DMSO, Figure 3
rat alpha-class GST A4-4 = system: rat alpha-class GST A4-4; set-up: method as in PMID 12230403; conditions: conversion to glutathione conjugate; read-out: Km for PGA2; cited from earlier work
human mu-class GST M1a-a = system: human mu-class GST M1a-a; set-up: method as in PMID 9084911; conditions: conversion to glutathione conjugate; read-out: Km for PGA2; cited from earlier work

CCCCC[C@H](O)/C=C/[C@H]1C=CC(=O)[C@@H]1C/C=C\CCCC(=O)O [15(S)-PGA2, prostaglandin A2]
Km (human mu-class GST M2-2): 7.6 µM | inhibition of GST activity in comparison to solvent controls ([1]; 600 µM): most potent inhibitors | inhibition of GST activity in comparison to solvent controls ([1]; listed as PGA2, 600 µM): greatest inhibition | Km (rat alpha-class GST A4-4): 12 µM | Km (human mu-class GST M1a-a): 26 µM

CCCCC[C@H](O)/C=C/[C@@H]1[C@@H](C/C=C\CCCC(=O)OC)[C@@H](O)C[C@H]1O [15(S)-PGF2α-methyl ester]
inhibition of GST activity in comparison to solvent controls [1]: little to no inhibitory activity

CCCCC[C@@](C)(O)/C=C/[C@H]1C=CC(=O)[C@@H]1C/C=C\CCCC(=O)O [15(R)-15-methyl PGA2]
inhibition of GST activity in comparison to solvent controls [1]: most potent inhibitors

CCCCC[C@H](O)/C=C/[C@H]1[C@H](O)CC(=O)[C@@H]1C/C=C\CCCC(=O)OC [15(S)-PGE2-methyl ester]
inhibition of GST activity in comparison to solvent controls [1]: little to no inhibitory activity
